The record followed here is PMC10816640, “Discovery of Novel Diphenyl Acrylonitrile Derivatives That Promote Adult Rats’ Hippocampal Neurogenesis” (International Journal of Molecular Sciences, 2024).

A word on the MRT: it is the average time that molecules of a dose stay in the body. Broadly, the Tmax is the time from dosing to the highest level. One may read the Cmax as the highest concentration seen after dosing.

Series [1] has as its system newborn cells in the subgranular zone. The experiment in a line: BrdU+ newborn cells, rats sacrificed 28 days after BrdU. It counts as in vivo, rat. The settings on record: nine-week-old rats (n = 2), i.p. 4.0 mg/kg/day for 28 days, BrdU pulse, Figure 7A. As to the method:
The study employed a rat model, wherein nine-week-old rats were administered intraperitoneally with the compound at a dose of 4.0 mg/kg/day for 28 days and then treated with a pulse of BrdU. Instead of sacrificing the rats 24 h after the BrdU injections, the rats were sacrificed after another 28 days. The brains were then isolated and cryosectioned. Eight randomly selected slices were subjected to immunohistochemical staining. This staining enabled the co-localization of the BrdU-incorporated cells with the NeuN marker, enabling the definition of the compounds that could promote the differentiation of newborn neural progenitor cells into mature functional neurons. The compounds were dissolved in reagent-grade soybean oil containing 10% ethanol to reach a drug concentration of 2.8 mg/mL. The rats in the experimental group received intraperitoneal injections of the compounds at a dose of 4.0 mg/kg/d for 28 consecutive days. As a control, the vehicle group was administered injections of reagent-grade soybean oil containing 10% ethanol. BrdU (Sigma-Aldrich, St. louis, MA, USA) solution, prepared in physiological saline at a concentration of 10 mg/mL, was administered to all rats on day 29. Each rat received two injections of BrdU at a dosage of 50 mg/kg, with a 2 h interval between injections. The rats were euthanized 24 h (or 28 days) after the final BrdU injection. Two or four rats per group were anesthetized using pentobarbital sodium (70 mg/kg) and subsequently perfused with physiological saline. The brain tissue was carefully dissected and fixed in 4% paraformaldehyde at 4 °C for one week. Next, the brain tissue underwent dehydration using a phosphate-buffered saline (PBS) solution containing 20% to 30% sucrose. Finally, the brain tissue was cryosectioned into slices with a thickness of 30 μm, and eight slices were randomly selected for further analysis. The assessment of new cell proliferation was conducted using BrdU staining. To eliminate endogenous peroxides, sections were exposed to 1% H2O2 for 30 min at RT. Cellular denaturation was achieved by treating the sections with 2 M HCl at 37 °C for 1 h, followed by rinsing in 0.1 M borate buffer (pH 8.5). Tissue sections were subjected to blocking in a solution consisting of 5% goat serum and 0.5% Triton X-100 in PBS at RT for 1–2 h. The specimens were then incubated overnight at 4 °C with a mouse primary antibody specific to BrdU (diluted at 1:500; Millipore, Billerica, MA, USA). Subsequently, the DAB kit was employed for 2 h of incubation at RT. The differentiation process of NPCs was visualized through the utilization of the NeuN/BrdU double staining technique. Tissue sections were subjected to an incubation period in a blocking buffer at RT for 1 to 2 h. The specimens were exposed to a rabbit anti-NeuN antibody (diluted at 1:500, Abcam, Cambridge, MA, UK) and a primary antibody, BrdU (diluted at 1:500), overnight at 4 °C. Afterwards, the sections were treated with anti-mouse 488 and anti-rabbit TRITC secondary antibodies for 2 h at RT. The data were presented as mean ± SEM (standard error of the mean) and visualized using GRAPHPAD PRISM 6 (Graphpad Software, La Jolla, CA, USA). Statistical analysis was conducted utilizing one-way analysis of variance (ANOVA) followed by a post hoc test. Subsequent to the statistical treatment, the observed discrepancies were determined to be statistically significant (p < 0.05).

The nature of series [2]: Pharmacokinetic study, plasma. Type of series: in vivo, SD rats. The settings on record: rat blood/plasma, 4 mg/kg i.p. As to the method: (§1) The SD rats (approximately 200 g) were randomly assigned to eight groups, with each group comprising three rats. All experimental procedures were carried out in accordance with the ethical guidelines outlined by the Ethics Committee of the Beijing Institute of Technology. The administration medium consisted of a combination of 5% dimethyl sulfoxide (DMSO) and 95% soybean oil. The drug was administered intraperitoneally at a dose of 4 mg/kg. Prior to the experiment, the experimental animals were subjected to a 12 h fasting period with free access to water. Following drug administration, blood samples were collected from the rat’s orbital vein at predetermined time points. The collected blood was then placed in sodium heparin anticoagulation tubes. The rats were euthanized, and their brain tissues were carefully extracted and loaded into 5 mL EP tubes. The collection time points for plasma and brain tissue samples were as follows: 0 min, 15 min, 30 min, 1 h, 2 h, 4 h, 8 h, and 24 h. Within 2 h after collection, the blood samples were centrifuged at 6000 rpm for 10 min at a temperature of 4 °C. The resulting samples were then stored in a −20 °C refrigerator.
(§2) Tissue samples were first weighed and homogenized to ensure consistent testing conditions. The determination of original compound concentrations in plasma and tissue homogenates was performed using LC-MS/MS. Specifically, 50 μL of plasma or tissue samples were mixed with 50 μL of propranolol and 100 μL of acetonitrile for protein precipitation. The resulting mixture was then centrifuged at 12,000 rpm for 5 min, and the supernatant was diluted and analyzed through LC-MS/MS. The liquid chromatography was conducted on a Thermo Scientific Q Exactive HF-X instrument (Thermo Fisher Scientific, Waltham, MA, USA), employing an ACQUITY UPLC BEH C18 Column with dimensions of 130 Å, 1.7 µm, 2.1 mm × 100 mm. Additionally, a pre-column equipped with an ACQUITY UPLC BEH C18 VanGuard Pre-Column (130 Å, 1.7 µm, 2.1 mm × 5 mm) was utilized. The liquid phase method employed gradient elution with mobile phases consisting of acetonitrile and a 0.1% formic acid aqueous solution. Mass spectrometry was conducted in positive ion mode. The quantification of drug concentration in plasma samples was performed using the internal standard method, and the obtained pharmacokinetic parameters were calculated using Phoenix WinNonlin 7.0 software.

The nature of series [3]: Pharmacokinetic study, brain tissue distribution. Type of series: in vivo, SD rats. As to conditions: 4 mg/kg i.p. How it is done:
as §1
as §2, with “Additionally, a pre-column equipped with an ACQUITY UPLC BEH C18 VanGuard Pre-Column (130 Å, 1.7 µm, 2.1 mm × 5 mm) was utilized. The liquid phase method employed gradient elution with mobile phases consisting of acetonitrile and a 0.1% formic acid aqueous solution. Mass spectrometry was conducted in positive ion mode.” left out

Structures are written as SMILES. Values joined by “and” are separate entries in the source; they are usually repeats but may differ in a detail not shown here. Identical values can stand only once. Marks after values point to notes of the source that are not given here.

Consider `CC(C)C(=O)Nc1ccc(/C(C#N)=C/c2ccc3c(c2)OCO3)cc1` [29b, (Z)-N-(4-(2-(benzo[d][1, 3]dioxol-5-yl)-1-cyanovinyl)phenyl)isobutyramide], for which the “proliferative activity over the longer 28 day period (number of BrdU+ cells)” value in series [1] is “could promote the proliferation of progenitors”.

Regarding `CC(C)C(=O)Nc1ccc(/C=C(\C#N)c2ccc3c(c2)OCO3)cc1` [32b, (Z)-N-(4-(2-(benzo[d][1, 3]dioxol-5-yl)-2-cyanovinyl)phenyl)isobutyramide], in series [2], the “AUC0–inf” value came out at 385 ± 82.3 ng·h/mL, the CL was 10,770 ± 2616 mL/h/kg, the MRT amounted to 2.46 ± 0.14 h and the T1/2 is on record as 2.23 h. Further, in series [2], the Tmax was 1.5 h and the Vz is recorded as 32,829 ± 4581 mL/kg. For the same compound, in series [2] (n = 3), the “AUC0–24h” value worked out at 383 ± 84.4 ng·h/mL and the Cmax turned out to be 132 ± 9 ng/mL. The Cmax in series [3] (rat brain tissue, n = 3) is reported as 168 ± 47 ng/g. In addition, the “AUC0–24h” value in series [3] (rat brain tissue, n = 3, 4 mg/kg) was 608 ng·h/g and 608 ± 220 ng·h/g. For the same compound, the “Ratio = Cmax of Brain/Cmax of Blood” value in series [3] (rat) is 1.28 ^a.
